From patent publication US8906925B2, “Pyrido[4,3-B]indoles containing rigid moieties” (Medivation Technologies, Inc., priority 2008, dated 2014)

What was measured:
[1] = biological target: human dopamine D2L receptor (Homo sapiens, UniProt P14416); assay: Dopamine D2L radioligand binding ([3H]Spiperone); conditions: percent inhibition of specific binding, compound at 1 μM; for inhibition at 1 µM: read-out: Inhibition of ligand binding, Dopamine D2L
Description: Non-specific binding was estimated in the presence of […] Haloperidol. Receptor proteins were filtered and washed, the filters were then counted to determine [^3H]Spiperone specifically bound. […] Biochemical assay results are presented as the percent inhibition of specific binding in Table 9.

[2] = biological target: T1, human recombinant serotonin (5-Hydroxytryptamine) 5-HT2C receptor (Homo sapiens, UniProt P28335); assay: Serotonin 5-HT2C radioligand binding ([3H]Mesulergine); conditions: compound at 0.1 μM; for inhibition at 0.1 µM: read-out: Inhibition of ligand binding, Serotonin 5-HT2C (percent inhibition of specific binding)
T1 construct: expressed in transfected cells; host or cells: Chinese hamster ovary (CHO-K1) cells
T1 sequence (P28335 33-458): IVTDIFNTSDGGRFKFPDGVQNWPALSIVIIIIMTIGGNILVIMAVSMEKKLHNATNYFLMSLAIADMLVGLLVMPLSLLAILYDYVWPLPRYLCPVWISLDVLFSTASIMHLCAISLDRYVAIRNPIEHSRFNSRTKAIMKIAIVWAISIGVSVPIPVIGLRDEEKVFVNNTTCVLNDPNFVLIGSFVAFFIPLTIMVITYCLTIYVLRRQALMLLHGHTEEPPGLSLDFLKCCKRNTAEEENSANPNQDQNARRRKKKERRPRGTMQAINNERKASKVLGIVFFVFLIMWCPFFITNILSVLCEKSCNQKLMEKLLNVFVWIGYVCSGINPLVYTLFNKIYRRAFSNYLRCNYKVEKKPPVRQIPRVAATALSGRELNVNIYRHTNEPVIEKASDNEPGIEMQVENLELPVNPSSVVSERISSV
Procedure: Compounds of the invention were incubated with 1 nM [^3H]Mesulergine for 60 min. at 25° C. Non-specific binding was estimated in the presence of 1 μM Mianserin. Receptor proteins were filtered and washed, the filters were then counted to determine [^3H]Mesulergine specifically bound. Compounds were screened at 1 μM or lower, using 1% DMSO as vehicle. Biochemical assay results are presented as the percent inhibition of specific binding in Table 10.

[3] = biological target: human recombinant serotonin (5-Hydroxytryptamine) 5-HT7 receptor (Homo sapiens, UniProt P34969); assay: Serotonin 5-HT7 radioligand binding ([3H]LSD); conditions: compound at 0.1 μM; for inhibition at 0.1 µM: read-out: Inhibition of ligand binding, Serotonin 5-HT7 (percent inhibition of specific binding)
Description: Receptor proteins were filtered and washed, the filters were then counted to determine [^3H]LSD specifically bound.

[4] = biological target: T2, human recombinant serotonin (5-Hydroxytryptamine) 5-HT2A receptor (Homo sapiens, UniProt P28223); assay: Serotonin 5-HT2A radioligand binding ([3H]Ketanserin); conditions: for inhibition at 0.1 µM: read-out: Inhibition of ligand binding, Serotonin 5-HT2A (percent inhibition of specific binding), compound at 0.1 μM
T2 construct: expressed in transfected cells; host or cells: Chinese hamster ovary (CHO-K1) cells
Procedure: Compounds of the invention were incubated with 0.5 nM [^3H]Ketanserin for 60 min. at 25° C. Non-specific binding was estimated in the presence of 1 μM Mianserin. Receptor proteins were filtered and washed, the filters were then counted to determine [^3H]Ketanserin specifically bound.

[5] = biological target: T3, human recombinant serotonin (5-Hydroxytryptamine) 5-HT6 receptor (Homo sapiens, UniProt P50406); assay: Serotonin 5-HT6 radioligand binding ([3H]LSD); conditions: compound at 0.1 μM; for inhibition at 0.1 µM: read-out: Inhibition of ligand binding, Serotonin 5-HT6 (percent inhibition of specific binding)
T3 construct: expressed in transfected cells; host or cells: human HeLa cells
Procedure: Compounds of the invention were incubated with 1.5 nM [3H]Lysergic acid diethylamide (LSD) for 120 min. at 37° C. […] Receptor proteins were filtered and washed, the filters were then counted to determine [3H]LSD specifically bound. Compounds were screened at 1 μM or lower, using 1% DMSO as vehicle. Biochemical assay results are presented as the percent inhibition of specific binding in Table 10.

histamine receptor H1 = histamine receptor H1 (Homo sapiens, UniProt P35367); assay: Histamine H1 radioligand binding ([3H]Pyrilamine); conditions: read-out: Histamine Binding (1 μM) H1, percent inhibition of specific binding, 1 μM
How it was run: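 Values are percent inhibition of specific [3H]pyrilamine (1.2 nM) binding with compounds at ≤1 μM (1% DMSO vehicle); 180 min incubation at 25 °C, pH 7.4 Tris buffer, on CHO-expressed human H1 receptor; 1 μM pyrilamine defined nonspecific binding, bound ligand counted after filtration.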

T2 sequence (P28223 whole entry): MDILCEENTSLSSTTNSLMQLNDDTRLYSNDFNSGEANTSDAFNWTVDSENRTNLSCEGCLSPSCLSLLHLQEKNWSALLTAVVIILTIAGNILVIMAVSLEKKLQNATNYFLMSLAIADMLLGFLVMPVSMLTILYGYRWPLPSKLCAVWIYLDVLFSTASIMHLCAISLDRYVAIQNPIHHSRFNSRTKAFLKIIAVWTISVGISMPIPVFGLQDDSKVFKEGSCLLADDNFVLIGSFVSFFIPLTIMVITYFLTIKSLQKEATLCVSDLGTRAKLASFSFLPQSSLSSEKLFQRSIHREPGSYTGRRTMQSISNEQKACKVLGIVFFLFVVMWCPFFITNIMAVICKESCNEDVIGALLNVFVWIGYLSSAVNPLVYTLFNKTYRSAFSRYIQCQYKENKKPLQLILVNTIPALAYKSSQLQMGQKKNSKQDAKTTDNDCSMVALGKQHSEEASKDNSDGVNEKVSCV
Chain of human recombinant serotonin (5-Hydroxytryptamine) 5-HT7 receptor (P34969 whole entry): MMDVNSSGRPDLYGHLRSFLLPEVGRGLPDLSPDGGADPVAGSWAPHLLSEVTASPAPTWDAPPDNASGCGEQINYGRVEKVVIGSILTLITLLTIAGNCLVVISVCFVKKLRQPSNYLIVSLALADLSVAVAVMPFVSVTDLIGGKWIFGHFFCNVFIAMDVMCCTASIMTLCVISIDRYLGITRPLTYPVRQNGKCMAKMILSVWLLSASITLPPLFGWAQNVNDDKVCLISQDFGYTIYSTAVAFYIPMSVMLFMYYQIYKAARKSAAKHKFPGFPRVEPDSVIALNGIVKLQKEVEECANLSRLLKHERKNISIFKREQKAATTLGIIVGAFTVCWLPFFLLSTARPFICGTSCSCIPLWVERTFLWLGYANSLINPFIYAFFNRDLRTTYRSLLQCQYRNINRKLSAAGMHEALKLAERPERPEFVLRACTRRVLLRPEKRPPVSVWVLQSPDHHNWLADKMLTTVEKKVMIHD
Chain of human dopamine D2L receptor (P14416 whole entry): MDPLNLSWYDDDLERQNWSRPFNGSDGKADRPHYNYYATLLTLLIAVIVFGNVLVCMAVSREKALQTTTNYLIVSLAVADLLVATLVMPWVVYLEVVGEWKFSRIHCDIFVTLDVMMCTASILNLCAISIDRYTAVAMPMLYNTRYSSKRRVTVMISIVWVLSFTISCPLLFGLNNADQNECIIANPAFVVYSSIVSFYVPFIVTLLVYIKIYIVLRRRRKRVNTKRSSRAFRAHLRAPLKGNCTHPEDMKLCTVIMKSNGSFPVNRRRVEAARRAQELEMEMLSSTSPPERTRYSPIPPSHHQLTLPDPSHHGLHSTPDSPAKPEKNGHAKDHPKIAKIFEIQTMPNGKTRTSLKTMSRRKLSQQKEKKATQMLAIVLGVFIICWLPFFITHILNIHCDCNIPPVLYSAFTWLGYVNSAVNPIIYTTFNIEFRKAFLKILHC
Chain of histamine receptor H1 (P35367 whole entry): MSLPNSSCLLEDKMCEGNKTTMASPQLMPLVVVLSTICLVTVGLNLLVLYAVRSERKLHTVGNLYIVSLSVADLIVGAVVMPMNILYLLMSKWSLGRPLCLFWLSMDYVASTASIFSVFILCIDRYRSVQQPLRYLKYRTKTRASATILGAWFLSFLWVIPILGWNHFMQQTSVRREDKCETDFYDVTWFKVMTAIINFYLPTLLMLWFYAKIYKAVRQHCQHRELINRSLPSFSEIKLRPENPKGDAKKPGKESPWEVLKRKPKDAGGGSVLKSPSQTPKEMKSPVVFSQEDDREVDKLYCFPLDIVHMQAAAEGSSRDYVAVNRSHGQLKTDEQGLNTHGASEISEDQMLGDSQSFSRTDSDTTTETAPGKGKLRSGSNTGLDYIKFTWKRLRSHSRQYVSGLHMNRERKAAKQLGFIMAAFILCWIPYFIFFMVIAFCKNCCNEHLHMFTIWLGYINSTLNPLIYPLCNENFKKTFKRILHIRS
T3 sequence (P50406 whole entry): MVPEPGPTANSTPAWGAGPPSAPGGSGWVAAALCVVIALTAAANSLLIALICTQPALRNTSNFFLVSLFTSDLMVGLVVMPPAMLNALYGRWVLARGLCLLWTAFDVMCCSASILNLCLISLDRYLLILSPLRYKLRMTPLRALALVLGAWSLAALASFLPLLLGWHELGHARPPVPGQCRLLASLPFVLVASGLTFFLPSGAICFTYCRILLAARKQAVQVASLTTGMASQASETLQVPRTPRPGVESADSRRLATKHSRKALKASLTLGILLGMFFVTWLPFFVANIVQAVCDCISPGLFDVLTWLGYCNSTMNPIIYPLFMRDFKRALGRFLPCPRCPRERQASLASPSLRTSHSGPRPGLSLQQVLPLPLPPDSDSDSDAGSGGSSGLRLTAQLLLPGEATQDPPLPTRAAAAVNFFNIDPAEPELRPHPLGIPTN

| Structure (SMILES) | inhibition at 1 µM [1] [%] | inhibition at 0.1 µM [2] [%] | inhibition at 0.1 µM [3] [%] | inhibition at 0.1 µM [4] [%] | inhibition at 0.1 µM [5] [%] | inhibition at 1 µM (histamine receptor H1) [%] | Inhibition of ligand binding, Dopamine D2L ([1]; 1 µM) [%] | Inhibition of ligand binding, Serotonin 5-HT2C (percent inhibition of specific binding) ([2]; 0.1 µM) [%] | Inhibition of ligand binding, Serotonin 5-HT7 (percent inhibition of specific binding) ([3]; 0.1 µM) [%] | Inhibition of ligand binding, Serotonin 5-HT2A (percent inhibition of specific binding) ([4]; compound at 0.1 μM, 0.1 µM) [%] | Inhibition of ligand binding, Serotonin 5-HT6 (percent inhibition of specific binding) ([5]; 0.1 µM) [%] |
| --- | --- | --- | --- | --- | --- | --- | --- | --- | --- | --- | --- |
| C/C(=C\n1c2c(c3cc(C(C)C)ccc31)CN(C)CC2)c1ccncc1 [Compound 267, (E)-8-isopropyl-2-methyl-5-(2-(pyridin-4-yl)prop-1-enyl)-2,3,4,5-tetrahydro-1H-pyrido[4,3-b]indole] | 85 | 54 | 85 | 66 | 87 | 6 |  |  |  |  |  |
| C/C(=C\n1c2c(c3cc(C(F)(F)F)ccc31)CN(C)CC2)c1ccc(F)cc1 [Compound 268, (E)-5-(2-(4-fluorophenyl)prop-1-enyl)-2-methyl-8-(trifluoromethyl)-2,3,4,5-tetrahydro-1H-pyrido[4,3-b]indole] | 98 | 86 | 87 | 98 | 97 | 53 |  |  |  |  |  |
| CCN1CCc2c(c3cc(C)ccc3n2/C=C(\C)c2ccncc2)C1 [Compound 269, (E)-2-ethyl-8-methyl-5-(2-(pyridin-4-yl)prop-1-enyl)-2,3,4,5-tetrahydro-1H-pyrido[4,3-b]indole] | 91 | 55 | 51 | 87 | 102 | -2 |  |  |  |  |  |
| CCc1ccc2c(c1)c1c(n2/C=C(\C)c2ccncc2)CCN(C)C1 [Compound 270, (E)-8-ethyl-2-methyl-5-(2-(pyridin-4-yl)prop-1-enyl)-2,3,4,5-tetrahydro-1H-pyrido[4,3-b]indole] | 88 | 84 | 79 | 92 | 97 | 19 |  |  |  |  |  |
| C/C(=C\n1c2c(c3cc(C(C)(C)C)ccc31)CN(C)CC2)c1ccncc1 [Compound 271, (E)-8-tert-butyl-2-methyl-5-(2-(pyridin-4-yl)prop-1-enyl)-2,3,4,5-tetrahydro-1H-pyrido[4,3-b]indole] | 63 | 19 | 10 | 41 | 90 | -16 |  |  |  |  |  |
| C/C(=C\n1c2c(c3cc(C)ccc31)CN(C(C)C)CC2)c1ccncc1 [Compound 272, (E)-2-isopropyl-8-methyl-5-(2-(pyridin-4-yl)prop-1-enyl)-2,3,4,5-tetrahydro-1H-pyrido[4,3-b]indole] | 85 | 40 | -1 | 62 | 98 | 48 |  |  |  |  |  |
| C/C(=C\n1c2c(c3cc(Cl)ccc31)CN(C)C(C)C2)c1ccc(C)nc1 (stereo not drawn) [Compound 273, (E)-8-chloro-2,3-dimethyl-5-(2-(6-methylpyridin-3-yl)prop-1-enyl)-2,3,4,5-tetrahydro-1H-pyrido[4,3-b]indole] | 12 | 100 | 85 | 94 | 46 | 41 |  |  |  |  |  |
| C/C(=C\n1c2c(c3cc(Cl)ccc31)CN(C)C(C)C2)c1ccncc1 (stereo not drawn) [Compound 275, (E)-8-chloro-2,3-dimethyl-5-(2-(pyridin-4-yl)prop-1-enyl)-2,3,4,5-tetrahydro-1H-pyrido[4,3-b]indole] | 92 | 98 | 72 | 93 | 101 | 39 |  |  |  |  |  |
| C/C(=C\n1c2c(c3cc(C)ccc31)CN(C)CC2)c1ccc(F)cc1F [Compound 276, (E)-5-(2-(2,4-difluorophenyl)prop-1-enyl)-2,8-dimethyl-2,3,4,5-tetrahydro-1H-pyrido[4,3-b]indole] | 82 | 96 | 86 | 99 | 81 | 63 |  |  |  |  |  |
| C/C(=C\n1c2c(c3cc(Cl)ccc31)CN(C)CC2)c1ccc(F)cc1F [Compound 277, (E)-8-chloro-5-(2-(2,4-difluorophenyl)prop-1-enyl)-2-methyl-2,3,4,5-tetrahydro-1H-pyrido[4,3-b]indole] |  |  |  |  |  | 95 | 98 | 98 | 103 | 100 | 98 |
| C/C(=C\n1c2c(c3cc(C)ccc31)CN(C)CC2)c1ccccn1 [Compound 278, (E)-2,8-dimethyl-5-(2-(pyridin-2-yl)prop-1-enyl)-2,3,4,5-tetrahydro-1H-pyrido[4,3-b]indole] | 51 | 91 | 79 | 88 | 69 | 24 |  |  |  |  |  |
| C/C(=C\n1c2c(c3cc(C)ccc31)CN(C)CC2)c1ccncn1 [Compound 279, (E)-2,8-dimethyl-5-(2-(pyrimidin-4-yl)prop-1-enyl)-2,3,4,5-tetrahydro-1H-pyrido[4,3-b]indole] | 69 | 70 | 53 | 75 | 90 | 21 |  |  |  |  |  |
| Cc1ccc2c(c1)c1c(n2/C=C(/c2ccncc2)C(C)(C)C)CCN(C)C1 [Compound 280, (E)-5-(3,3-dimethyl-2-(pyridin-4-yl)but-1-enyl)-2,8-dimethyl-2,3,4,5-tetrahydro-1H-pyrido[4,3-b]indole] | 52 | 86 | 20 | 83 | 56 | 12 |  |  |  |  |  |
| CC/C(=C/n1c2c(c3cc(C)ccc31)CN(C)CC2)c1ccncc1 [Compound 281, (Z)-2,8-dimethyl-5-(2-(pyridin-4-yl)but-1-enyl)-2,3,4,5-tetrahydro-1H-pyrido[4,3-b]indole] | 51 | 96 | 93 | 103 | 78 | 42 |  |  |  |  |  |
| CC/C(=C/n1c2c(c3cc(Cl)ccc31)CN(C)CC2)c1ccncc1 [Compound 282, (Z)-8-chloro-2-methyl-5-(2-(pyridin-4-yl)but-1-enyl)-2,3,4,5-tetrahydro-1H-pyrido[4,3-b]indole] | 57 | 94 | 91 | 100 | 102 | 31 |  |  |  |  |  |
